The values below come from patent US20110053907A1, “SUBSTITUTED PYRIMIDINES AND TRIAZINES AND THEIR USE IN CANCER THERAPY” (Auckland UniServices Limited, priority 2008, published 2011).

Entries after “also recorded” stand apart in the source; their conditions may differ. Some results are limits rather than exact numbers.

The test system of data set [1] is PI 3-kinase in 3T3L1 adipocytes. Put plainly: Cellular irreversibility assay, insulin-stimulated phosphoSer473 PKB Western blot with and without washout. The format is cell-based. As to the method: Fully differentiated 3T3L1 adipocytes were starved overnight without serum. The following day, cells were incubated for 60 min with wortmannin (100 nM) as the positive control, LY 294002 (5 μM) as the negative control, the test compounds (1 μM), or DMSO.
To test for irreversibility, cells were then either: 1) rinsed 3 times with warm medium and incubated without an inhibitor for 30 min; or 2) maintained in the same medium containing an inhibitor.
Cells were subsequently stimulated or not with insulin (100 nM, 10 min). Finally, cells were washed twice with ice-cold Phosphate Buffer Saline (PBS) (140 mM NaCl, 3 mM KCl, 6 mM Na2HPO4, 1 mM KH2PO4 (pH 7.4)) and solubilized with a lysis buffer (20 mM Tris-HCl, 138 mM NaCl, 2.7 mM KCl, 1 mM MgCl2, 1 mM CaCl2, 5% (v/v) glycerol, 1% (v/v) Nonidet P-40 (NP40), 5 mM EDTA, 20 μM leupeptin, 18 μM pepstatin, 1 mM AEBSF, 4 μg/mL aprotinin, 2 mM Na3VO4, 20 mM NaF, 1 mM DTT (pH7.4)). Lysates were kept on ice for 20 min and insoluble material was removed by centrifugation at 14,000 g for 10 min. Protein concentration was determined by colorimetric assay (BCA, Pierce).
Proteins were separated by SDS-PAGE and transferred to polyvinylidene difluoride (PVDF) membranes (Pall Corporation, USA). The membranes were incubated for 1 hr in a blocking buffer (20 mM Tris (pH 7.4), 137 mM NaCl, 0.5% (v/v) Tween 20) containing 3% (w/v) BSA (ICP Bio, Auckland, New Zealand) or non-fat milk, and then incubated overnight in the blocking buffer containing specific antibodies (phosphoSer473 PKB and total PKB) Immunoreactive proteins were detected using horseradish peroxidase-linked secondary antibodies (Dako) and enhanced chemiluminescence (ECL) according to the manufacturer's instructions (GE Healthcare, Inc.). Signals were analyzed and quantified using Fuji LAS-3000 phosphorimager and Fuji Image Gauge software.
Overnight-starved 3T3L1 adipocytes cells were incubated for 60 min with compound of Example 4 at 1 μM (lanes 7-12). […]

The subject of data set [2] is NZOV9. As to the kind of experiment: Cellular growth inhibition, 3H-thymidine incorporation. Type of data set: cell-based, human. The following applies: five days, 3H-thymidine over last 6 hrs; fifth data column. As for the experimental part:
The compounds were evaluated against two early passage human cell lines NZB5 and NZOV9 (Marshall et al., Oncol. Res. 2004, 14, 297). The cells were grown in ITS medium (α-modified minimal essential medium supplemented insulin, transferrin, selenite, and 5% fetal bovine serum) and grown on 96-well tissue culture plates under an atmosphere of 5% O2, 5% CO2, and 90% N2. Individual wells contained 500-1,000 cells (depending on the growth rate) in a volume of 150 μL. Compounds were added at 10-fold concentration steps to a maximum of 20 μM and plates were incubated for five days, with ^3H-thymidine being added over the last 6 hrs. Cells were harvested and incorporated radioactivity measured. Duplicate samples were analyzed for each compound dose with multiple control samples. Data were fitted by a least-squares method to an exponential of the form y=y0+ae^−bx, where y is the radioactivity (corrected for background and normalized to 100% of the control), x is the […], and y0, a, and b are variables, and the IC50 value defined as the compound concentration reducing ^3H-thymidine levels by 50%.
(Incorporation of labelled thymidine or its analogues reports DNA synthesis.)

The test system of data set [3] is human tumour xenografts. The following applies: mouse, in vivo; cited from earlier work.

The compound `COc1cccc2c1nc(C(F)F)n2-c1nc(N2CCOCC2)nc(N2CCN(C(=O)CCl)CC2)n1` [Example 4, 1-[4-[4-(Chloroacetyl)-1-piperazinyl]-6-(4-morpholinyl)-1,3,5-triazin-2-yl]-2-(difluoromethyl)-4-methoxy-1H-benzimidazole] registered a melting point of 241 to 243 °C. In addition, the “insulin-stimulated phosphorylation of PKB (phosphoSer473)” value in data set [1] (1 μM, 60 min, compound left on cells, insulin 100 nM, 10 min (lanes 7-9)) is recorded as “attenuated”. Further, the “insulin-stimulated phosphorylation of PKB (phosphoSer473) after washout” value in data set [1] (1 μM, 60 min, rinsed 3 times, 30 min without compound, insulin 100 nM, 10 min (lanes 10-12)) is on record as “attenuated”. For the same compound, the “irreversible binding to PI 3-kinase” value in data set [1] (3T3L1 adipocytes, FIG. 1) is “irreversible binding; also recorded: irreversibly bound PI 3-kinase in the cells”. The compound `COc1cccc2c1nc(C(F)F)n2-c1nc(N2CCOCC2)nc(N(C)[C@@H]2CCCN(C(=O)CCl)C2)n1` [Example 39, N-[(3R)-1-(chloroacetyl)piperidinyl]-4-[2-(difluoromethyl)-4-methoxy-1H-benzimidazol-1-yl]-N-methyl-6-(4-morpholinyl)-1,3,5-triazin-2-amine] registered an IC50 in data set [2] of less than 100 nM. With `O=c1cc(N2CCOCC2)oc2c(-c3ccccc3)cccc12` [LY294002], the tolerability entry in data set [3] was “well-tolerated”. In turn, “N-[(3S)-1-(chloroacetyl)piperidinyl]-4-[2-(difluoromethyl)-4-methoxy-1H-benzimidazol-1-yl]-N-methyl-6-(4-morpholinyl)-1,3,5-triazin-2-amine [Example 40]” returned a half-maximal inhibitory concentration (IC50) in data set [2] of less than 100 nM.

By melting point is commonly meant the temperature, or range, at which the solid turns liquid. The IC50 is the point on the concentration scale where inhibition reaches its midpoint. Higher therefore signals lower potency.
